Source: patent publication US8530648B2, “Diaza-spiro[5.5]undecanes” (Novartis AG, priority 2009, dated 2013)

Assays:
hOx1R = hOx1R (Homo sapiens (Human), UniProt O43613); experiment: Calcium accumulation in cells (FLIPR), hOx1R; format: cell-based; conditions: for inhibition at 10 µM: measured at a concentration of 10 μM of compound; for Ki: inhibition of orexin A induced calcium accumulation, Cheng and Prusoff correction
Description: (§1) Calcium Accumulation in Cells (FLIPR):
(§2) Cells expressing human orexin 1 or human orexin 2 receptors, were seeded at 8,000 cells/well in 384 well black-walled clear bottom, poly-D-lysine coated plates. After 24 h, the medium was removed and cells were washed once with phosphate buffered saline and serum-deprived overnight in assay buffer (130 mM NaCl, 5.4 mM KCl, 1.8 mM CaCl2, 0.8 mM MgSO4, 0.9 mM NaH2PO4, 25 mM glucose, 20 mM HEPES, pH 7.4) containing bovine serum albumin (1% w/v).
(§3) On the day of the experiment, the cells seeded in black plates were treated with assay buffer containing the Ca^2+ sensitive fluorescent dye Fluo-4-AM (2 μM), and probenecid (0.1 mM). After 1 h plates were washed twice with, and resuspended in, assay buffer containing probenecid (0.1 mM) using a multi plate washer. […] Fluorescence measurements were then continued every 1 S for 120 S followed by every 4 S for 240 S.
(§4) The measurements were typically made in two sequences:
(§5) Compounds of formula I were tested usually in a concentration range from 10^−9 M to 10^−5 M.
(§6) In the second round, performed one hour later (to allow for equilibration), Orexin A was tested either in the absence (calibration curves, Orexin A agonist controls) or in the presence of compounds of formula I to determine antagonism.

hOx2R = hOx2R (Homo sapiens (Human), UniProt O43614); experiment: Calcium accumulation in cells (FLIPR), hOx2R; format: cell-based; conditions: for Ki: inhibition of orexin A induced calcium accumulation, Cheng and Prusoff correction; for inhibition at 10 µM: measured at a concentration of 10 μM of compound
Description: as §1, §2, §3, §4, §5, §6

hOx2R, sequence (O43614 whole entry): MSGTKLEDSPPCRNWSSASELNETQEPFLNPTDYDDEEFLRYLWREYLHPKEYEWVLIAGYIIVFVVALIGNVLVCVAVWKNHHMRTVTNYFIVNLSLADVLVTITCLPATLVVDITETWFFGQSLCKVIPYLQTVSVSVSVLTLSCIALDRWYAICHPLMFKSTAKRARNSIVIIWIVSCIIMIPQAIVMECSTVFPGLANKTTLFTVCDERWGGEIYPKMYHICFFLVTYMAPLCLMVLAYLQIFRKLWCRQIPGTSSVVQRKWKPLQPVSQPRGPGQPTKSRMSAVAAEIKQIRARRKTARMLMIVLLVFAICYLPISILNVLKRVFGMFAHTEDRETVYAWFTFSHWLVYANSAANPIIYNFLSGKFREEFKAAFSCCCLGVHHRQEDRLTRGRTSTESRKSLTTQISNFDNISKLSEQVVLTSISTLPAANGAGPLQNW
hOx1R, sequence (O43613 whole entry): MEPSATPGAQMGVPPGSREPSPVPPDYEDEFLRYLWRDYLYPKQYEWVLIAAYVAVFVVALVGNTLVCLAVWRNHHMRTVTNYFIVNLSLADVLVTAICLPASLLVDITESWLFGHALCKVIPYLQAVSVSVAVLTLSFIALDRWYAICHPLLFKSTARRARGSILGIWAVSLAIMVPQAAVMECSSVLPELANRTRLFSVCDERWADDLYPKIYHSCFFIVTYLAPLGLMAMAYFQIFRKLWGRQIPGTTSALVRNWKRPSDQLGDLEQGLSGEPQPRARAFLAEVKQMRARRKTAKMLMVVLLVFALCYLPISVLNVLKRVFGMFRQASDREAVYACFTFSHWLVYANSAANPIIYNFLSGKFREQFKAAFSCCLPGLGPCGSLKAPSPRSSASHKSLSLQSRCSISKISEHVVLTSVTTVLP

SMILES | inhibition at 10 µM (hOx1R) [%] | Ki (hOx2R) [nM] | Ki (hOx1R) [nM] | inhibition at 10 µM (hOx2R) [%]
O=C1N(Cc2c[nH]c3ccccc23)CCCC12CCN(c1cnc3nccnc3c1)CC2 [Example 146, 2-((1H-indol-3-yl)methyl)-9-(pyrido[3,2-b]pyrazin-7-yl)-2,9-diazaspiro[5.5]undecan-1-one] | 29 | 621 | – | –
Cc1cc(CN2CCCC3(CCN(c4cnc5ccccc5n4)CC3)C2=O)no1 [Example 88, 2-((5-methylisoxazol-3-yl)methyl)-9-(quinoxalin-2-yl)-2,9-diazaspiro[5.5]undecan-1-one] | 11 | – | – | 25
O=C1N(Cc2nccn2Cc2ccccc2)CCCC12CCN(c1cnc3ccccc3n1)CC2 [Example 86, 2-((1-benzyl-1H-imidazol-2-yl)methyl)-9-(quinoxalin-2-yl)-2,9-diazaspiro[5.5]undecan-1-one] | 47 | 372 | – | –
O=C1CCCC2(CCN(c3cnc4ccccc4n3)CC2)N1Cc1ccccc1 [Example 134, 1-benzyl-9-(quinoxalin-2-yl)-1,9-diazaspiro[5.5]undecan-2-one] | – | 161 | 1440 | –
O=C1CCCC2(CCN(c3nc4ccccc4[nH]3)CC2)N1Cc1cccc2[nH]ccc12 [Example 138, 1-((1H-indol-4-yl)methyl)-9-(1H-benzo[d]imidazol-2-yl)-1,9-diazaspiro[5.5]undecan-2-one] | – | 1970 | 3790 | –
O=C1N(Cc2ccc(Cl)nc2)CCCC12CCN(c1cnc3ccccc3n1)CC2 [Example 78, 2-((6-chloropyridin-3-yl)methyl)-9-(quinoxalin-2-yl)-2,9-diazaspiro[5.5]undecan-1-one] | 15 | – | – | 32
O=C1N(Cc2cc(F)cc3c2OCOC3)CCCC12CCN(c1cnc3ccccc3n1)CC2 [Example 120, 2-((6-fluoro-4H-benzo[d][1,3]dioxin-8-yl)methyl)-9-(quinoxalin-2-yl)-2,9-diazaspiro[5.5]undecan-1-one] | – | 125 | 700 | –
O=C1N(Cc2c[nH]c3ccccc23)CCCC12CCN(c1cc(-n3ccnc3)ncn1)CC2 [Example 158, 9-(6-(1H-imidazo-1-yl)pyrimidin-4-yl)-2-((1H-indol-3-yl)methyl)-2,9-diazaspiro[5.5]undecan-1-one] | 21 | 545 | – | –
O=C1N(Cc2c[nH]c3ccccc23)CCCC12CCN(c1cc(-c3ccccc3)ncn1)CC2 [Example 165, 2-((1H-indol-3-yl)methyl)-9-(6-phenylpyrimidin-4-yl)-2,9-diazaspiro[5.5]undecan-1-one] | – | 115 | 468 | –
Cc1nnc(-c2ccc(CN3CCCC4(CCN(c5cnc6ccccc6n5)CC4)C3=O)cc2)o1 [Example 109, 2-(4-(5-methyl-1,3,4-oxadiazol-2-yl)benzyl)-9-(quinoxalin-2-yl)-2,9-diazaspiro[5.5]undecan-1-one] | – | 1240 | 3140 | –
O=C1CCCC2(CCN(c3nc4ccc(Cl)cc4o3)CC2)N1Cc1cccc2[nH]ccc12 [Example 139, 1-((1H-indol-4-yl)methyl)-9-(6-chlorobenzo[d]oxazol-2-yl)-1,9-diazaspiro[5.5]undecan-2-one] | – | 105 | 541 | –
O=C1N(Cc2cccc(Cl)c2)CCCC12CCN(c1nccc(-c3ccccc3)n1)CC2 [Example 29, 2-(3-chlorobenzyl)-9-(4-phenylpyrimidin-2-yl)-2,9-diazaspiro[5.5]undecan-1-one] | – | 614 | 1700 | –
O=C1CCCC2(CCN(c3cnc4ccccc4n3)CC2)N1Cc1noc2ccccc12 [Example 135, 1-(benzo[d]isoxazol-3-ylmethyl)-9-(quinoxalin-2-yl)-1,9-diazaspiro[5.5]undecan-2-one] | – | 185 | 242 | –
O=C1N(Cc2c[nH]c3ccccc23)CCCC12CCN(c1nc3ccccc3s1)CC2 [Example 52, 2-((1H-indol-3-yl)methyl)-9-(benzo[d]thiazol-2-yl)-2,9-diazaspiro[5.5]undecan-1-one] | – | 178 | 1360 | –
Cc1ccc2nc(N3CCC4(CCCN(Cc5c[nH]c6ccccc56)C4=O)CC3)sc2c1 [Example 153, 2-((1H-indol-3-yl)methyl)-9-(6-methylbenzo[d]thiazol-2-yl)-2,9-diazaspiro[5.5]undecan-1-one] | 22 | – | – | 35
COc1ccnc(CN2CCCC3(CCN(c4cnc5ccccc5n4)CC3)C2=O)c1OC [Example 91, 2-((3,4-dimethoxypyridin-2-yl)methyl)-9-(quinoxalin-2-yl)-2,9-diazaspiro[5.5]undecan-1-one] | – | – | 2870 | 38
O=C1N(Cc2ccc(C(F)(F)F)nc2)CCCC12CCN(c1cnc3ccccc3n1)CC2 [Example 90, 9-(quinoxalin-2-yl)-2-((6-(trifluoromethyl)pyridin-3-yl)methyl)-2,9-diazaspiro[5.5]undecan-1-one] | 17 | – | – | 12
O=C1N(Cc2ccc(-c3ncccn3)cc2)CCCC12CCN(c1cnc3ccccc3n1)CC2 [Example 101, 2-(4-(pyrimidin-2-yl)benzyl)-9-(quinoxalin-2-yl)-2,9-diazaspiro[5.5]undecan-1-one] | – | 1380 | 2790 | –
Cc1ncc(CN2CCCC3(CCN(c4cnc5ccccc5n4)CC3)C2=O)c2c1OC(C)(C)OC2 [Example 117, 9-(quinoxalin-2-yl)-2-((2,2,8-trimethyl-4H-[1,3]dioxino[4,5-c]pyridin-5-yl)methyl)-2,9-diazaspiro[5.5]undecan-1-one] | – | 249 | 2380 | –
O=C1N(Cc2c[nH]c3ccccc23)CCCC12CCN(c1nc3cc(Cl)ccc3o1)CC2 [Example 131, 2-((1H-indol-3-yl)methyl)-9-(5-chlorobenzo[d]oxazol-2-yl)-2,9-diazaspiro[5.5]undecan-1-one] | 48 | 524 | – | –

Results, then the compound that gave them:

inhibition at 10 µM (hOx1R) [%] | Ki (hOx2R) [nM] | Ki (hOx1R) [nM] | inhibition at 10 µM (hOx2R) [%] | SMILES
– | 1660 | 2530 | – | O=C1N(Cc2cc3ccccc3[nH]2)CCCC12CCN(c1cnc3ccccc3n1)CC2 [Example 121, 2-((1H-indol-2-yl)methyl)-9-(quinoxalin-2-yl)-2,9-diazaspiro[5.5]undecan-1-one]
– | 945 | 4210 | – | O=C1N(Cc2cncn2-c2ccccc2)CCCC12CCN(c1cnc3ccccc3n1)CC2 [Example 110, 2-((1-phenyl-1H-imidazol-5-yl)methyl)-9-(quinoxalin-2-yl)-2,9-diazaspiro[5.5]undecan-1-one]
57 | 1200 | – | – | Cc1cc(C)n(-c2ccccc2CN2CCCC3(CCN(c4cnc5ccccc5n4)CC3)C2=O)n1 [Example 115, 2-(2-(3,5-dimethyl-1H-pyrazol-1-yl)benzyl)-9-(quinoxalin-2-yl)-2,9-diazaspiro[5.5]undecan-1-one]
– | 138 | 1280 | – | Cc1noc(-c2ccccc2)c1CN1CCCC2(CCN(c3cnc4ccccc4n3)CC2)C1=O [Example 32, 2-((3-methyl-5-phenylisoxazol-4-yl)methyl)-9-(quinoxalin-2-yl)-2,9-diazaspiro[5.5]undecan-1-one]
– | 205 | 945 | – | Cc1ccc(C)c(CN2CCCC3(CCN(c4cnc5ccccc5n4)CC3)C2=O)c1 [Example 20, 2-(2,5-dimethylbenzyl)-9-(quinoxalin-2-yl)-2,9-diazaspiro[5.5]undecan-1-one]
15 | 822 | – | – | O=C1N(Cc2ccccc2-n2cccn2)CCCC12CCN(c1cnc3ccccc3n1)CC2 [Example 85, 2-(2-(1H-pyrazol-1-yl)benzyl)-9-(quinoxalin-2-yl)-2,9-diazaspiro[5.5]undecan-1-one]
29 | 830 | – | – | Cc1cc(CN2CCCC3(CCN(c4cnc5ccccc5n4)CC3)C2=O)ccn1 [Example 68, 2-((2-methylpyridin-4-yl)methyl)-9-(quinoxalin-2-yl)-2,9-diazaspiro[5.5]undecan-1-one]
– | 466 | 2160 | – | Cc1nc2ccccn2c1CN1CCCC2(CCN(c3cnc4ccccc4n3)CC2)C1=O [Example 71, 2-((2-methylimidazo[1,2-a]pyridin-3-yl)methyl)-9-(quinoxalin-2-yl)-2,9-diazaspiro[5.5]undecan-1-one]
14 | – | – | 33 | Cc1cccc(CN2CCCC3(CCN(c4cnc5ccccc5n4)CC3)C2=O)n1 [Example 97, 2-((6-methylpyridin-2-yl)methyl)-9-(quinoxalin-2-yl)-2,9-diazaspiro[5.5]undecan-1-one]
44 | 559 | – | – | Cn1nc2ccccc2c1CN1CCCC2(CCN(c3cnc4ccccc4n3)CC2)C1=O [Example 76, 2-((2-methyl-2H-indazol-3-yl)methyl)-9-(quinoxalin-2-yl)-2,9-diazaspiro[5.5]undecan-1-one]
8 | – | – | 22 | Cc1noc(C)c1CN1CCCC2(CCN(c3cnc4ccccc4n3)CC2)C1=O [Example 37, 2-((3,5-dimethylisoxazol-4-yl)methyl)-9-(quinoxalin-2-yl)-2,9-diazaspiro[5.5]undecan-1-one]
– | 196 | 1400 | – | Cn1ncc2c(CN3CCCC4(CCN(c5cnc6ccccc6n5)CC4)C3=O)cccc21 [Example 108, 2-((1-methyl-1H-indazol-4-yl)methyl)-9-(quinoxalin-2-yl)-2,9-diazaspiro[5.5]undecan-1-one]
